Measurements reported in ChEMBL document CHEMBL1201862, “PubChem BioAssay data set” (2004).
Activity calls are given as the source filed them.

How the values were obtained:
[1] = inhibitors of intracellular T. cruzi replication, confirmation, NIH3T3 host cells, beta-gal luminescence (AID 2044); type: functional, cell-based;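 also: intracellular parasites grown in NIH/3T3 mouse fibroblasts as host cells; luminescent beta-galactosidase reporter signal from transgenic T. cruzi replicating inside host cells; inhibitors lower the luminescence signal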
[2] = cytotoxicity toward NIH3T3 fibroblasts, dose response, counter-screen, cell-based, ATP luminescence, mouse fibroblasts (AID 2010); type: functional;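 also: cells exposed to compound for about 90 hours before reading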
[3] = HEp-2 cell cytotoxicity, dose response, cytotoxicity control for RSV inhibitor project, HTS (AID 2410); type: functional; details: human respiratory syncytial virus
Cytochrome P450 2C9 = Cytochrome P450 2C9 (Homo sapiens, UniProt P11712)
Cytochrome P450 2C19 = Cytochrome P450 2C19 (Homo sapiens, UniProt P33261); test: Cytochrome panel assay with activity outcomes. Panel member name: p450-cyp2c19 Compounds with AC50 equal or less than 10 uM are considered active; type: functional
Streptococcus = test: Group A Streptococcus viability loss, dose response, counter-screen for streptokinase expression inhibitor project, luminescence, BacTiterGlo (AID 1915); type: functional, organism-based;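 also: potency for reduction of bacterial viability or growth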
[4] = system: Streptococcus sp. 'group A'; test: growth inhibition of control SK(-) GAS strain, dose response, counter-screen for streptokinase expression inhibitor project, luminescence, kanamycin, BacTiterGlo, confirmation (AID 1900); type: functional, organism-based
Cytochrome P450 3A4 = Cytochrome P450 3A4 (Homo sapiens, UniProt P08684);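 also: CYP3A4 tested as one member of a cytochrome P450 panel screen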
[5] = molecular target: T1, Rac GTPase-activating protein 1 (Homo sapiens, UniProt Q9H0H5); test: MgcRacGAP GTPase-activating activity inhibitors, confirmation, biochemical, ADP Hunter fluorescence, primary and confirmatory (AID 624330); type: functional
T1 sequence (Q9H0H5 whole entry): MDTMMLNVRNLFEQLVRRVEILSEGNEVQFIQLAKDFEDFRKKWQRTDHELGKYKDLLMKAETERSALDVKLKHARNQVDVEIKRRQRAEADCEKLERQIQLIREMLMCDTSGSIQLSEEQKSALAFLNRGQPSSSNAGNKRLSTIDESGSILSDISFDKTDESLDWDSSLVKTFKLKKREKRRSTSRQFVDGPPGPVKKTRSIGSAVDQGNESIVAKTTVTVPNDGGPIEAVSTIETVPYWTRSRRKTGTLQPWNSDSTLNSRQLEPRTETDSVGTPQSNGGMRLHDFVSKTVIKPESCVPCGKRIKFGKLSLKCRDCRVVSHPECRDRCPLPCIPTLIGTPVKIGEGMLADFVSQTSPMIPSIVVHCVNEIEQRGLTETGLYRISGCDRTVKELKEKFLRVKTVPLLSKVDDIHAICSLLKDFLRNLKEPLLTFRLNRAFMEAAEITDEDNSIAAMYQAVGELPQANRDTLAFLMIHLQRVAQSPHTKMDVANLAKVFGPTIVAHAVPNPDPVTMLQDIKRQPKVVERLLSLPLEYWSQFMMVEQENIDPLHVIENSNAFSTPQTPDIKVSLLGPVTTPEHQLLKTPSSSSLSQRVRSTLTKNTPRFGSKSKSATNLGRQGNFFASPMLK

Protein RecA = molecular target: T2, Protein RecA (Mycobacterium tuberculosis, UniProt P9WHJ3); test: Fluorescence Cell-Free Homogeneous Dose Retest to Identify Inhibitors of RecA-Intein Splicing Activity. [Related pubchem assays (depositor defined):AID2097, AID2223, AID489010, AID492950]; type: functional
T2 sequence (P9WHJ3 whole entry): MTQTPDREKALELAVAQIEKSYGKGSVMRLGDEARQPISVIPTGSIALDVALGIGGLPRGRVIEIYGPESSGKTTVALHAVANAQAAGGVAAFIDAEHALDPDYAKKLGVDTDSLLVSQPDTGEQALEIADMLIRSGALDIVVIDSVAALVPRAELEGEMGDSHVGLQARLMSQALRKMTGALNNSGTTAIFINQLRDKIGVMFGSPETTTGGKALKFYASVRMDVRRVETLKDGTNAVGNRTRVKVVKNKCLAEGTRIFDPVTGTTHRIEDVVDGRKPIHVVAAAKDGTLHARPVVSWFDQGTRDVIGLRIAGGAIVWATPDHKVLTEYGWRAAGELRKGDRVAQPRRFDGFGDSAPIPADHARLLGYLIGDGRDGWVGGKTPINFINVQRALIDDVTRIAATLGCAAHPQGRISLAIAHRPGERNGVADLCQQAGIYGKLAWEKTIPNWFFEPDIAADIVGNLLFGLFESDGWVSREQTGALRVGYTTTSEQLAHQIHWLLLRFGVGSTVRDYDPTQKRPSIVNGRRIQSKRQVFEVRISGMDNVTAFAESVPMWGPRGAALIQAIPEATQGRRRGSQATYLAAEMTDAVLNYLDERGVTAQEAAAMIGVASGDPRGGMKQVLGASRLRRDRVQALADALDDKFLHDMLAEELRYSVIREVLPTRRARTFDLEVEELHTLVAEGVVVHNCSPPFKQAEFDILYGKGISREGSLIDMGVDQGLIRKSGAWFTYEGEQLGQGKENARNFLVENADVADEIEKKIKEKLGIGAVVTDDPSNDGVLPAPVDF

Sequence of Cytochrome P450 3A4 (P08684 whole entry): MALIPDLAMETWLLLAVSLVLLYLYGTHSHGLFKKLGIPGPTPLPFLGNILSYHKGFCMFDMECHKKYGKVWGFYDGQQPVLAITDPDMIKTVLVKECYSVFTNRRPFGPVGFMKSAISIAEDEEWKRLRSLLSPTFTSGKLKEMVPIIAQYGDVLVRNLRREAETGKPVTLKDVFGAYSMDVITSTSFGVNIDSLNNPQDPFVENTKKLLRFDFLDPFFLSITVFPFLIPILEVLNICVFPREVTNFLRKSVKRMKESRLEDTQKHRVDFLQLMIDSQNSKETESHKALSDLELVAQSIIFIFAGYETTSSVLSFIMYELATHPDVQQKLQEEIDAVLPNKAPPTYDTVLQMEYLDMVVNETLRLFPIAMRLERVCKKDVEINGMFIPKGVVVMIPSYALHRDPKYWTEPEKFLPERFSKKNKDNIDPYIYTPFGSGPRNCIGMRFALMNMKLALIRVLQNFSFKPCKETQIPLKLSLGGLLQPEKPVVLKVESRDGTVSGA
Sequence of Cytochrome P450 2C9 (P11712 whole entry): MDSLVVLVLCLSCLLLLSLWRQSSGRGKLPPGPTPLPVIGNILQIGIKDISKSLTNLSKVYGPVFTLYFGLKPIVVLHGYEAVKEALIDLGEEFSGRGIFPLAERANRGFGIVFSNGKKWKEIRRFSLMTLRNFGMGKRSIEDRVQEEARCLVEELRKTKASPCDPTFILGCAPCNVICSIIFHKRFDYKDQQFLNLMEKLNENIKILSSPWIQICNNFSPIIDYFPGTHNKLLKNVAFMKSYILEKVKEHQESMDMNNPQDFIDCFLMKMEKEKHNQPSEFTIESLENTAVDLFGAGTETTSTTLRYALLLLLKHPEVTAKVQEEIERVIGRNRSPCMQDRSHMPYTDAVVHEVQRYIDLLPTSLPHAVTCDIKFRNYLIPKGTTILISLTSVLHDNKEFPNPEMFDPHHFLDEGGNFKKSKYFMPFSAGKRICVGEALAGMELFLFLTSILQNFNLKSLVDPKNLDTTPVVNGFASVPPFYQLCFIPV
Sequence of Cytochrome P450 2C19 (P33261 whole entry): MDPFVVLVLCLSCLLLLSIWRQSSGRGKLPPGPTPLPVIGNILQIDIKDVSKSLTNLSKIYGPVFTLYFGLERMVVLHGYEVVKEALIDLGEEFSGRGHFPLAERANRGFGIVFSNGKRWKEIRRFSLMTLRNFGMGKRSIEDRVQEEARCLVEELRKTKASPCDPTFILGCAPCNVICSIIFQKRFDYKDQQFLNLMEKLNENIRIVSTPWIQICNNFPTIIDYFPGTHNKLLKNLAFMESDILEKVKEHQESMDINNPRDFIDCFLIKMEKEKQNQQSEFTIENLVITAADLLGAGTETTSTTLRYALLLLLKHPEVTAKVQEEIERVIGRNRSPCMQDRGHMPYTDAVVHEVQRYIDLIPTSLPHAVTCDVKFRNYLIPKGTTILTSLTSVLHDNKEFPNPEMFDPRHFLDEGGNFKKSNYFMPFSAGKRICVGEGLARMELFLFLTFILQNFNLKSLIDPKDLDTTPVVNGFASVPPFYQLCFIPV

Cc1ccc(O)c(C(=O)c2cc(C(=O)NCCc3ccccc3)c(=O)n(CCc3ccccc3)c2)c1
EC50 [1]: 2.02 µM (active)
EC50 [2]: > 30 µM (not active)

O=C(COC(=O)c1c2ccccc2cc2ccccc12)NCC(F)(F)F
CC50 [3]: 23.6 µM (active)

CCN(C(=O)CSc1nnc(Cn2nnc3ccccc32)o1)c1nc(-c2ccccc2)cs1
CC50 [3]: 26.4 µM (active)

O=C(CN1CCN(c2nc(-c3ccccc3)cs2)CC1)NCc1ccc2c(c1)OCO2
CC50 [3]: 11 µM (active)

O=C(O)[C@H](Cc1cc(I)c(O)c(I)c1)C1CCCCC1
AC50 (Cytochrome P450 2C9): 3.16 µM (inconclusive)
AC50 (Cytochrome P450 2C19; read-out: AC50): 2 µM (inconclusive)

CCC(C#CCN1CCCCC1)(CC)OCCC#N
AC50 (Cytochrome P450 2C9): 0.355 µM (inconclusive)

COc1ccc2c(c1OC)C(=O)OC2Nc1ncccc1C (stereo not given)
AC50 (Cytochrome P450 2C19; read-out: AC50): 39.8 µM (inconclusive)

CCOC(=O)c1cnc2cc(-c3ccc(C(C)(C)C)cc3)nn2c1N
AC50 (Cytochrome P450 2C9): 3.16 µM (inconclusive)

COc1ccc(CSCCN=C(S)Nc2ccccc2)cc1Cl
EC50 (Streptococcus): > 150 µM (not active)
EC50 [4]: 18.5 µM (active)

COc1ccc(C(=O)CC(=O)C(=O)Nc2ccccc2C(F)(F)F)cc1
EC50 (Streptococcus): 8.59 µM (active)
EC50 [4]: 3.52 µM (active)

CS(=O)(=O)N1CCN(c2ccc([N+](=O)[O-])c(NCc3ccccc3)c2)CC1
AC50 (Cytochrome P450 3A4): 31.6 µM (inconclusive)
AC50 (Cytochrome P450 2C19; read-out: AC50): 31.6 µM (inconclusive)

Cc1ccc2nc(NC(=O)COC(=O)CSc3nc(C)cc(C)n3)sc2c1
AC50 (Cytochrome P450 2C19; read-out: AC50): 5.01 µM (inconclusive)

Cc1ccc(-n2cnc3cc(NCc4cccs4)ccc32)cc1
CC50 [3]: 25.3 µM (active)

COc1ccc(NC(=O)CSc2nc(-c3ccc(C)cc3)cc(C(F)(F)F)c2C#N)cc1
AC50 (Cytochrome P450 2C19; read-out: AC50): 20 µM (inconclusive)

COc1cc(/C=C/CN2CCC(CO)(CC3CCCCO3)CC2)ccc1O (stereo not given)
IC50 [5]: 91.2 µM (active)

C=CCOC(=O)C1=C(C)NC(=O)NC1c1ccc(OC(=O)c2ccco2)c(OC)c1 (stereo not given)
EC50 (Protein RecA): 18 µM (active)

CCCC(=O)Nc1nc(C(=O)OCC)cs1
AC50 (Cytochrome P450 2C19; read-out: AC50): 39.8 µM (inconclusive)

CCc1cccc(Nc2c([N+](=O)[O-])nn(-c3ccc4c(c3)OCCO4)[n+]2[O-])c1
EC50 [1]: 0.272 µM (active)
EC50 [2]: > 60 µM (inconclusive)

O=C(CN1CCN(C(c2ccccc2)c2ccccc2)CC1)N1CCN(c2ccccc2)CC1
CC50 [3]: 23.9 µM (active)

COc1ccc(NC2CCCN(C(=O)c3oc(C)cc3C)C2)cc1OC (stereo not given)
IC50 [5]: 159 µM (active)

Cc1cc(C)c2c(CN3CCN(Cc4ccc5c(c4)OCO5)CC3)cc(=O)oc2c1
CC50 [3]: 16.8 µM (active)

COc1ncc2nc(CCc3ccccc3)c(=O)n(C3CC3)c2n1
AC50 (Cytochrome P450 3A4): 31.6 µM (inconclusive)

O=C(NC(Nc1cc(C(F)(F)F)ccc1Cl)C(=O)c1ccccc1)c1ccccc1 (stereo not given)
EC50 [1]: 2.17 µM (active)
EC50 [2]: > 30 µM (not active)

CCCc1nc2c(c(=O)c3ccccc3n2C)c(=O)n1-c1cc(C)cc(C)c1
CC50 [3]: > 50 µM (active)

COC(=O)C(O)(c1c(C)[nH]c2ccccc12)C(F)(F)F (stereo not given)
AC50 (Cytochrome P450 3A4): 22.4 µM (inconclusive)
AC50 (Cytochrome P450 2C9): 3.16 µM (inconclusive)

COc1ccc(N(C(=O)Cn2nnc3ccccc32)C2(C(=O)NC3CCCC3)CCCCC2)cc1
AC50 (Cytochrome P450 2C9): 22.4 µM (inconclusive)
AC50 (Cytochrome P450 2C19; read-out: AC50): 14.1 µM (inconclusive)

COCCNc1nc(-c2ccc(C(=O)N(C)C)cc2)nc2ccccc12
AC50 (Cytochrome P450 3A4): 15.8 µM (inconclusive)

Cc1nnc(SCC2=C(C(=O)O)N3C(=O)C(NC(=O)C(C)n4nc(C(F)(F)F)cc4C)C3SC2)s1 (stereo not given)
EC50 (Streptococcus): 0.421 µM (active)
EC50 [4]: 0.201 µM (active)

Cc1nc2cnc(Oc3cccc(Cl)c3)nc2n(CCC#N)c1=O
AC50 (Cytochrome P450 2C9): 39.8 µM (inconclusive)

Cc1ccc(CN2CCN(CC(=O)N=Nc3c(O)[nH]c4ccccc34)CC2)cc1
EC50 [1]: 1.08 µM (active)
EC50 [2]: > 60 µM (not active)

Cc1ccc(-c2csc(NCCc3nc4cc(Cl)c(Cl)cc4n3CCCO)n2)cc1
CC50 [3]: 28.9 µM (active)

COCC(C)n1c(C)cc(C(=O)COC(=O)c2c(C)nn(-c3ccccc3)c2C)c1C (stereo not given)
CC50 [3]: 29.2 µM (active)

Cc1nn2cc(-c3ccc(N)cc3)nc2s1
IC50 [5]: 110 µM (active)

COc1ccc(C(=O)CN2C(=O)NC(C)(c3ccccc3)C2=O)cc1OC (stereo not given)
AC50 (Cytochrome P450 3A4): 4.47 µM (inconclusive)
AC50 (Cytochrome P450 2C19; read-out: AC50): 39.8 µM (inconclusive)

Nc1ncnc2c1ncn2[C@@H]1O[C@@H](C(=O)NC2CC2)[C@H](O)[C@@H]1O
AC50 (Cytochrome P450 3A4): 1 µM (inconclusive)

C/C(CCN1CCc2nc(-c3ccccc3)c(-c3ccccc3)cc2C1)=N\OC[C@@H](O)[C@@H]1O[C@@H]2OC(C)(C)O[C@@H]2[C@H]1O
AC50 (Cytochrome P450 3A4): 3.98 µM (inconclusive)

CNc1nc(-c2ccc3c(c2)CCN3C(=O)c2ccccc2C)cs1
CC50 [3]: 14.9 µM (active)

Cn1c(O)c(C(c2ccccn2)c2c(O)n(C)c(=S)n(C)c2=O)c(=O)n(C)c1=S
AC50 (Cytochrome P450 2C9): 1.58 µM (inconclusive)

O=C(COc1ccccc1)Nc1ccc2[nH]c(O)nc2c1
CC50 [3]: 26 µM (active)

COc1ccc(NC(S)=NC(=NCS(=O)(=O)c2ccccc2)c2ccccc2)cc1
CC50 [3]: 24.6 µM (active)

N=C(N)CCNC(=O)[C@@H]1CCC(N)=N1.O=S(=O)(O)O
AC50 (Cytochrome P450 2C19): inconclusive

O=C1[C@H]2[C@@H](c3ccc(F)cc3)N3C(=O)N(c4ccc(C(F)(F)F)cc4)C(=O)[C@@]3(Cc3ccccc3)[C@H]2C(=O)N1C1CCCCC1
CC50 [3]: > 50 µM (active)

O=C(NCc1ccco1)c1nc(O)c2nnn(Cc3cccc(Cl)c3)c2n1
AC50 (Cytochrome P450 2C9): 15.8 µM (inconclusive)

COc1ccccc1N1CCN(CC(=O)NCC2CCCO2)CC1 (stereo not given)
IC50 [5]: 51.9 µM (active)

Cc1[nH]nc(-c2ccc(OCc3cnn(-c4ccccc4)c3)cc2O)c1Oc1ccccc1F
AC50 (Cytochrome P450 3A4): 8.91 µM (inconclusive)

Oc1ccc(Br)cc1Cn1nnc2ccccc21
CC50 [3]: 30 µM (active)

COc1cc(CN2CCN(Cc3ccc(C(F)(F)F)cc3)CC2)cc(OC)c1OC
IC50 [5]: 122 µM (active)

O=C(NC1CCCC1)c1ccc([N+](=O)[O-])s1
EC50 [1]: 0.546 µM (active)
EC50 [2]: 5.25 µM (active)

COc1ccc(CCNCc2ccccc2)cc1
IC50 [5]: 134 µM (active)

COCCn1c(=O)c(-c2cccs2)nc2cnc(OC)nc21
AC50 (Cytochrome P450 2C9): 39.8 µM (inconclusive)
AC50 (Cytochrome P450 2C19; read-out: AC50): 20 µM (inconclusive)

COc1cccc([C@@H]2Oc3ccc(OC)cc3/C(=N/O[C@@H](C)CN3CCCc4nc(C)c(C)cc43)[C@@H]2O)c1
AC50 (Cytochrome P450 2C9): 2 µM (inconclusive)
AC50 (Cytochrome P450 2C19; read-out: AC50): 0.251 µM (inconclusive)

COc1ccc(NC(=O)c2nc[nH]n2)cc1
AC50 (Cytochrome P450 2C9): 0.708 µM (inconclusive)
AC50 (Cytochrome P450 2C19; read-out: AC50): 31.6 µM (inconclusive)

OC1CNc2c(ccc3ccccc23)C1 (stereo not given)
IC50 [5]: 18.4 µM (active)

COc1ccccc1CNC(=O)C[C@@H]1C[C@H]2c3cc(N(C)C)ccc3O[C@H]2[C@H](CO)O1
IC50 [5]: 153 µM (active)

COc1cc(/C=N/N=C2/SCC(=O)N2c2ccc(O)cc2)ccc1O
IC50 [5]: 65 µM (active)

C/C(CC(=O)NC1CCCC1)=N\NC(=O)Cc1cccs1
AC50 (Cytochrome P450 3A4): 12.6 µM (inconclusive)

CCN1CCN(c2ccc(/N=C/c3ccc(O)cc3O)cc2)CC1
IC50 [5]: 28 µM (active)

O=C(CCC(=O)Nc1ccc(F)cc1)N/N=C/c1ccc(O)cc1
IC50 [5]: 62.8 µM (active)

Cc1ccc(S(=O)(=O)Nc2ccc(NC(=O)CN3CCCCC3)c(Cl)c2)cc1
CC50 [3]: 24.8 µM (active)
